Laboratory results from patent US20250354049A1, “CORROSION-INHIBITING AGENTS FOR REDUCING DISSOLVED OXYGEN CONCENTRATIONS WITHIN UPSTREAM OILFIELD SYSTEMS” (Finoric LLC, priority 2024, published 2025).
≈ marks a conversion by molar mass, not a printed value. Entries after “also recorded” stand apart in the source; their conditions may differ. Where two headings read alike, the source gives them in different places.

Experiments:
[1] = cited from earlier work
[2] = Example 6: oxygen scavenging in deionized water with and without P110 steel coupon
Experimental: For a first test, no steel coupon was present but for a second test, a P110 steel coupon was suspended in the water. The dissolved oxygen was measured as a function of time at room temperature (˜ 70° F.) for both tests. FIG. 10 provides a picture 1000 of the second test in which the steel coupon was submerged in the deionized water within the glass vessel.
At the 180 min mark, the temperature was increased from 70° F. to 100° F. in both tests.

[3] = Example 1: oxygen scavenging in deionized water, impact of temperature and activator; details: for dissolved oxygen scavenged: absence of catalyst, after 6 h, pH ~6.4, deionized water; for dissolved oxygen scavenged / time until all detectable dissolved oxygen was scavenged: 200 ppm; for time until all detectable dissolved oxygen was scavenged: with activator CuSO4·5H2O 10 ppm, pH ~6.4
Experimental: To prepare the experiment, 500 mL of deionized water (saturated with dissolved oxygen) was placed in a 3-neck round bottom flask, and a calibrated dissolved oxygen probe was inserted into the center neck. FIG. 5 provides picture 500 of the experiment setup. The water was stirred magnetically, and the pH and temperature were adjusted to the indicated values. Temperature was controlled by heating in a water bath, and pH was adjusted to ˜6.4 with dilute hydrogen chloride (HCl). […] The corrosion-inhibiting agent and activator (if used) were injected via micropipette through one of the side necks in the flask. […] The flask was then sealed and dissolved oxygen was monitored continuously as a function of time.

[4] = cited from earlier work; remark: listed apart in the source
[5] = solvents named; cited from earlier work
[6] = second test, P110 steel coupon present, 200 ppm, ~70° F.

Structure (SMILES)	~pKa [1]	Solubility in Water (in words) [4]	Solubility in Other Solvents [5]	further results
N.O=S(O)O [Ammonium bisulfite]	7			
O=C1O[C@H]([C@@H](O)CO)C(O)=C1O [Ascorbic Acid]				dissolved oxygen left behind ([2]; after temperature increased from 70° F. to 100° F. at the 180 min mark): ~0.37 ppm; dissolved oxygen after bolus of copper catalyst ([2]; copper catalyst (10 ppm) injected at the 235 min mark, 100° F.): non-detectable levels; dissolved oxygen concentration after 4 h ([2]; first test without coupon, 200 ppm, dropped from 9.05 ppm, room temperature (~70° F.)): 5.23 ppm; reaction with dissolved oxygen (in words) ([2]; first test without coupon, 200 ppm, ~70° F.): only a slow reaction was observed; rate of reaction with dissolved oxygen (in words) [2, 6]: increased significantly; time after which the scavenging reaction stalled [2, 6]: 180 min; reaction with dissolved oxygen (in words) ([3]; absence of activator, FIG. 6 solid lines): relatively sluggish; dissolved oxygen scavenged ([3]; 100° F.): approximately 35%; dissolved oxygen scavenged ([3]; 135° F.): ~93%; reaction rate with dissolved oxygen (in words) ([3]; copper catalyst (CuSO4·5H2O) added, FIG. 6 dashed lines): significant increase in reaction rate; time until all detectable dissolved oxygen was scavenged ([3]; 100° F.): ≤ 2 min; time until all detectable dissolved oxygen was scavenged ([3]; ambient temperature (72° F.)): ≤ 15 min
NNC(=O)NN [Carbohydrazide]	11.81	Very	ethanol	
CCN(O)CC [Diethylhydroxylamine (DEHA), diethylhydroxylamine]	5.7	Miscible		
NN [Hydrazine]	8-9	Miscible	Ethanol,; also recorded: methanol	
Oc1ccc(O)cc1 [Hydroquinone (HQ), Hydroquinone]	9.9		Ethanol,; also recorded: acetone	Solubility in Water [4]: 59 mg/mL (≈ 536 mM)
CCC(C)=NO [Methylethylketoxime (MEKO), Methylethylketoxime]		Miscible	Ethanol	
O=S([O-])O.[Na+] [Sodium Bisulfite]	~7			~pKa ([1]; listed as sodium bisulfite): ~7
O=S([O-])S(=O)(=O)[O-].[Na+].[Na+] [Sodium Metabisulfite, reference compound]	~1.8		Glycerol,; also recorded: ethanol	Solubility in Water [4]: 653 mg/mL
O=S([O-])[O-].[Na+].[Na+] [Sodium Sulfite]	~9			~pKa ([1]; listed as sodium sulfite): ~9
O=S([O-])([O-])=S.[Na+].[Na+] [Sodium Thiosulfate]	1.74			
